In US10344054B2, “Angiotensin-1-receptor antagonists” (Ferring B.V., priority 2016, dated 2019):
Where two headings read alike, the source gives them in different places. Starred links: 1 amine or outer side, 2 acyl side, 3 side chain; linkers in the order of their positions; H or OH if unused. Non-standard residues stand in square brackets, D forms with d. Residues, ends and D or L forms follow the SMILES beside them. X1 = O=C(CN(C[C@H](O)[C@@H](O)[C@H](O)[C@H](O)CO)[*:1])[*:2]; dPhe(2-Ph) = N[C@H](Cc1ccccc1-c1ccccc1)C(=O)O; dBta = N[C@H](Cc1csc2ccccc12)C(=O)O; Chg = N[C@H](C(=O)O)C1CCCCC1

How the values were obtained:
[1] = molecular target: T1, hAT1R (Homo sapiens, UniProt P30556); experiment: FLIPR calcium flux assay, Part I: agonist activity; type: cell-based; details: read-out: hAT1R Agonist Efficacy Agonist (%) Ave
T1 sequence (P30556 1-359): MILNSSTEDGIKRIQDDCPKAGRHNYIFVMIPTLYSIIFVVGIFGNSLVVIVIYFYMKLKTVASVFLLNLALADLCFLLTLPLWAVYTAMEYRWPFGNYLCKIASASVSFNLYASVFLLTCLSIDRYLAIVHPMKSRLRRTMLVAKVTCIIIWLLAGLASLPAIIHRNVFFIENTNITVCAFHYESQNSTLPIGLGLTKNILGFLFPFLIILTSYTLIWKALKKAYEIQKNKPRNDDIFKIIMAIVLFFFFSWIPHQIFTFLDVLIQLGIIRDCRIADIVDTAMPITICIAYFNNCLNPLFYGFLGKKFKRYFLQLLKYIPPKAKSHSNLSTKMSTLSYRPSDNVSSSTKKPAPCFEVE
Experimental: (§1) AT1 receptor (AT1R) agonists increase intracellular flux of calcium ions. AT1R antagonists can reduce the agonist effect. […] Compounds were first tested for agonism (Part I) followed by addition of the AT1R agonist angiotensin II to test for antagonist activity (Part II). This assay used a stable hAT1R expressing cell line (ChanTest hAT1R; ChanTest Corp A628). Intracellular flux of calcium in response to agonist was measured through real-time measurement of fluorescence induced through the interaction of Ca2+ (released from intracellular stores) and calcium-sensitive dye. In Part I, cells were exposed to varying concentrations of test compounds and immediately measured for agonist activity (EC50 and Efficacy).
(§2) ChanTest hAT1R stable cells were maintained in Ham's F12 containing 10% (v/v) heat inactivated fetal bovine serum (FBS-HI), 4 mM Glutamax, 1% NEAA, 50 ng/mL plasmocin, 400 μg/mL G418 at 37° C. under 5% CO2 in a humidified atmosphere.
(§3) For FLIPR assay, ChanTest hAT1R cells were trypsinized with 6 ml of Trypsin EDTA solution and harvested in phenol-red free DMEM containing 10% FBS-HI, 4 mM Glutamax and counted, spun down and resuspended in the same medium. The cell suspension was added to the wells of 384-well black PDL clear bottom plates at 2.5×10^4 cells/well, 20 μl/well.
(§4) Preparation of Loading Buffer:
(§5) • Loading Buffer: 1 vial of Calcium 5 Bulk Assay reagent was dissolved in 100 ml of 1× HBSS-20 mM Hepes buffer. • Probenecid was resuspended at 1 M in 1 M NaOH. Once the probenecid had gone into solution, an equal volume of H2O was added to make a solution of 500 mM followed by a 1:100 dilution in the Loading Buffer for a working concentration of 5 mM. The pH was adjusted to 7.4 using 1 M NaOH. Loading the Cells with Loading Buffer • Cell plates were removed from the incubator and 25 μl of Loading Buffer containing probenecid (5 mM) added to each well. • Plates were incubated for 1 hour at 37° C. under 5% CO2 in a humidified atmosphere. […] The remaining steps of the assay were carried forward by FLIPR Tetra. A baseline reading was taken at 1-second (s) intervals for 10 s followed by the addition of 5 μl of 10× compounds. The compound-induced fluorescence signal was then measured for 3 minutes with readings taken at 1-s intervals. • The cell plate was removed from the FLIPR and set aside for an additional 17 minutes. • The cell plate was then transferred back to the FLIPR Tetra, along with the 384 well Angiotensin II agonist dilution plate. A baseline reading was taken at 1-second (s) intervals for 10 seconds, followed by the addition of 5.5 μl of 10× Angiotensin II agonist. The agonist-induced fluorescence signal was then measured for 3 minutes with readings taken at 1-s intervals. • Overall, each well in the FLIPR assay was composed of the following components in a total volume of 55.5 μl:
(§6) Time-course results from the FLIPR Calcium 5 assay were expressed as relative fluorescence light units (RFU). The maximum minus minimum values (Max−Min) were used to quantify the strength of the signal. Mean RFU were calculated from replicate values and plotted on the y-axis versus compound concentration on a logarithmic scale on the x-axis, and a single-binding site, four parameter concentration response model: (MIN+((MAX−MIN)/(1+((EC50/x)^Hill)))), was used to perform non-linear regression analysis, generating concentration response curves. Reported parameters included agonist potency EC50 (the concentration causing half-maximal agonist response), antagonist potency IC50 (the concentration causing half-maximal inhibition of the agonist response for antagonist compounds) and efficacy (% MPE: percent of the maximal possible effect).

[2] = molecular target: T1, hAT1R; experiment: FLIPR calcium flux assay, Part II: antagonist activity against Angiotensin II; type: cell-based; details: for Emax: read-out: hAT1R Antagonist Efficacy Antag (%) Ave; on hAT1R Antagonist Efficacy Antag (%) Ave: Angiotensin II 10 nM final concentration
Experimental: as §1, §2, §3, §4, §5, §6

[3] = ChanTest hAT1R stable cells, % MPE, percent of the maximal possible effect
[4] = read-out: hAT1R Antagonist IC50 Ave

Compound | Emax [1, 3] | Emax [2] | IC50 [2, 4] | Emax [1] | IC50 [2]
CNCC(=O)N[C@@H](CCCNC(=N)N)C(=O)N[C@H](C(=O)N[C@@H](Cc1ccc(O)cc1)C(=O)N[C@H](C(=O)N[C@@H](Cc1c[nH]cn1)C(=O)N1CCC[C@H]1C(=O)N[C@H](Cc1ccc(Cl)cc1Cl)C(=O)O)C(C)C)C(C)C [Compound 7, Sar-Arg-Val-Tyr-Val-His-Pro-(D-Phe(2,4-diCl))—OH] (HELM PEPTIDE1{[Sar].R.V.Y.V.H.P.[O=C(O)[C@@H](Cc1ccc(Cl)cc1Cl)N[*:1]]}$$$$V2.0) | 12% | 99% | 6.4 nM | – | –
CNCC(=O)N[C@@H](CCCNC(=N)N)C(=O)N[C@H](C(=O)N[C@@H](Cc1ccc(O)cc1)C(=O)N[C@H](C(=O)N[C@@H](Cc1c[nH]cn1)C(=O)N1CCC[C@H]1C(=O)N[C@H](Cc1ccccc1C(F)(F)F)C(=O)O)C(C)C)C(C)C [Compound 3, Sar-Arg-Val-Tyr-Val-His-Pro-(D-Phe(2-CF3))—OH] (HELM PEPTIDE1{[Sar].R.V.Y.V.H.P.[O=C(O)[C@@H](Cc1ccccc1C(F)(F)F)N[*:1]]}$$$$V2.0) | 5% | 99% | 23.6 nM | – | –
CNCC(=O)N[C@@H](CCCNC(=N)N)C(=O)N[C@H](C(=O)N[C@@H](Cc1ccc(O)cc1)C(=O)N[C@H](C(=O)N[C@@H](Cc1c[nH]cn1)C(=O)N1CCC[C@H]1C(=O)N[C@H](Cc1cccc2ccccc12)C(=O)O)C1CCCC1)C(C)C [Compound 15, Sar-Arg-Val-Tyr-Cpg-His-Pro-(D-1Nal)-OH] (HELM PEPTIDE1{[Sar].R.V.Y.[O=C([C@@H](N[*:1])C1CCCC1)[*:2]].H.P.[O=C(O)[C@@H](Cc1cccc2ccccc12)N[*:1]]}$$$$V2.0) | 6% | 100% | 4.6 nM | – | –
CNCC(=O)N[C@@H](CCCNC(=N)N)C(=O)N[C@H](C(=O)N[C@@H](Cc1ccc(O)cc1)C(=O)N[C@H](C(=O)N[C@@H](Cc1c[nH]cn1)C(=O)N1CCC[C@H]1C(=O)N[C@H](Cc1ccccc1-c1ccccc1)C(=O)O)C(C)C)C(C)C [Compound 6, Sar-Arg-Val-Tyr-Val-His-Pro-(D-Phe(2-Ph))—OH] (HELM PEPTIDE1{[Sar].R.V.Y.V.H.P.[O=C(O)[C@@H](Cc1ccccc1-c1ccccc1)N[*:1]]}$$$$V2.0) | 10% | 99% | 16.6 nM | – | –
CNCC(=O)N[C@@H](CCCNC(=N)N)C(=O)N[C@H](C(=O)N[C@@H](Cc1ccc(O)cc1)C(=O)N[C@H](C(=O)N[C@@H](Cc1c[nH]cn1)C(=O)N1CCC[C@H]1C(=O)N[C@H](Cc1c(C)cccc1C)C(=O)O)C(C)C)C(C)C [Compound 8, Sar-Arg-Val-Tyr-Val-His-Pro-(D-Phe(2,6-diMe))—OH] (HELM PEPTIDE1{[Sar].R.V.Y.V.H.P.[Cc1cccc(C)c1C[C@@H](N[*:1])C(=O)O]}$$$$V2.0) | 3% | 101% | 8.5 nM | – | –
CNCC(=O)N[C@@H](CCCNC(=N)N)C(=O)N[C@H](C(=O)N[C@@H](Cc1ccc(O)cc1)C(=O)N[C@H](C(=O)N[C@@H](Cc1c[nH]cn1)C(=O)N1CCC[C@H]1C(=O)N[C@H](Cc1cccc2ccccc12)C(=O)O)[C@@H](C)OC)C(C)C [Compound 17, Sar-Arg-Val-Tyr-Thr(Me)-His-Pro-(D-1Nal)-OH] | – | 100% | – | 4% | 6 nM
CNCC(=O)N[C@@H](CCCNC(=N)N)C(=O)N[C@H](C(=O)N[C@@H](Cc1ccc(O)cc1)C(=O)N[C@H](C(=O)N[C@@H](Cc1c[nH]cn1)C(=O)N1CCC[C@H]1C(=O)N[C@H](Cc1csc2ccccc12)C(=O)O)C(C)C)C(C)C [Compound 10, Sar-Arg-Val-Tyr-Val-His-Pro-(D-(3-benzothienyl)alanine)-OH] (HELM PEPTIDE1{[Sar].R.V.Y.V.H.P.[O=C(O)[C@@H](Cc1csc2ccccc12)N[*:1]]}$$$$V2.0) | 5% | 99% | 9.5 nM | – | –
CNCC(=O)N[C@@H](CCCNC(=N)N)C(=O)N[C@H](C(=O)N[C@@H](Cc1ccc(N)cc1)C(=O)N[C@H](C(=O)N[C@@H](Cc1c[nH]cn1)C(=O)N1CCC[C@H]1C(=O)N[C@H](Cc1ccccc1Cl)C(=O)O)C(C)C)C(C)C [Compound 33, Sar-Arg-Val-Aph-Val-His-Pro-(D-Phe(2-Cl))—OH] (HELM PEPTIDE1{[Sar].R.V.[Nc1ccc(C[C@H](N[*:1])C(=O)[*:2])cc1].V.H.P.[O=C(O)[C@@H](Cc1ccccc1Cl)N[*:1]]}$$$$V2.0) | 3% | 100% | 17.1 nM | – | –

The next lines start with results.

Emax [1, 3] | Emax [2] | IC50 [2, 4] | Compound | Emax [1] | IC50 [2]
6% | 101% | 18.6 nM | Cc1ccccc1C[C@@H](NC(=O)[C@@H]1CCCN1C(=O)[C@H](Cc1c[nH]cn1)NC(=O)[C@@H](NC(=O)[C@H](Cc1ccc(O)cc1)NC(=O)[C@@H](NC(=O)[C@H](CCCNC(=N)N)NC(=O)CNC[C@H](O)[C@@H](O)[C@H](O)[C@H](O)CO)C(C)C)C(C)C)C(=O)O [Compound 45, Glac-Arg-Val-Tyr-Val-His-Pro-(D-Phe(2-Me))—OH] (HELM PEPTIDE1{[O=C(CNC[C@H](O)[C@@H](O)[C@H](O)[C@H](O)CO)[*:2]].R.V.Y.V.H.P.[Cc1ccccc1C[C@@H](N[*:1])C(=O)O]}$$$$V2.0) | – | –
5% | 101% | 19.1 nM | CC(C)[C@H](NC(=O)[C@H](CCCNC(=N)N)NC(=O)CNC[C@H](O)[C@@H](O)[C@H](O)[C@H](O)CO)C(=O)N[C@@H](Cc1ccc(O)cc1)C(=O)N[C@H](C(=O)N[C@@H](Cc1c[nH]cn1)C(=O)N1CCC[C@H]1C(=O)N[C@H](Cc1csc2ccccc12)C(=O)O)C1CCCCC1 [Compound 41, Glac-Arg-Val-Tyr-Chg-His-Pro-(D-(3-benzothienyl)alanine)-OH] (H-[X1]RVY[Chg]HP[dBta]-OH) | – | –
0.7% | 100% | – | CCCCC(=O)N(Cc1ccc(-c2ccccc2-c2nnn[nH]2)cc1)[C@H](C(=O)O)C(C)C [Ref. Cpd. 4, Valsartan, reference compound] | – | –
10% | 101% | 28.5 nM | CC(C)[C@H](NC(=O)[C@H](CCCNC(=N)N)NC(=O)CNC[C@H](O)[C@@H](O)[C@H](O)[C@H](O)CO)C(=O)N[C@@H](Cc1ccc(O)cc1)C(=O)N[C@H](C(=O)N[C@@H](Cc1c[nH]cn1)C(=O)N1CCC[C@H]1C(=O)N[C@H](Cc1ccccc1-c1ccccc1)C(=O)O)C1CCCCC1 [Compound 42, Glac-Arg-Val-Tyr-Chg-His-Pro-(D-Phe(2-Ph))—OH] (H-[X1]RVY[Chg]HP[dPhe(2-Ph)]-OH) | – | –
7% | 99% | 19.5 nM | CC(C)[C@H](NC(=O)[C@H](CCCNC(=N)N)NC(=O)CNC[C@H](O)[C@@H](O)[C@H](O)[C@H](O)CO)C(=O)N[C@@H](Cc1ccc(O)cc1)C(=O)N[C@H](C(=O)N[C@@H](Cc1c[nH]cn1)C(=O)N1CCC[C@H]1C(=O)N[C@H](Cc1cccc2ccccc12)C(=O)O)C(C)C [Compound 37, Glac-Arg-Val-Tyr-Val-His-Pro-(D-1Nal)-OH] (HELM PEPTIDE1{[O=C(CNC[C@H](O)[C@@H](O)[C@H](O)[C@H](O)CO)[*:2]].R.V.Y.V.H.P.[O=C(O)[C@@H](Cc1cccc2ccccc12)N[*:1]]}$$$$V2.0) | – | –
